Values of other authors in patent US6747006B2, “Use of GLP-1 or analogs in treatment of myocardial infarction” (Eli Lilly and Company, priority 1996, dated 2004).

System: diabetic patients during acute myocardial infarction
Conditions: insulin and glucose infusion, then subcutaneous multidose insulin; compared with control group of diabetics without insulin treatment

Substance: Insulin: insulin given as control by continuous infusion or subcutaneous injection
- lowering of mortality during the year following myocardial infarction: 30%
